Each block holds one compound with its values, some of them ahead of it.
How the values were obtained:
Type in all cases: cell-based
HT29 = assay: BrdU cell growth inhibition, HT29; settings: Homo sapiens, HT-29; HT29 cells; read-out: HT29 GI 50
Description: (§1) The GI50s for the compounds of the invention is assayed as described herein.
The HT29 cell line is a NCI standard human colon carcinoma cell line. HT-29 cells are obtained from ATCC at passage 125 and are used for inhibition studies between passage 126-151. HT29 cells are routinely cultured in McCoy's 5A medium supplemented with Fetal Bovine Serum (1.5% v/v) and L-glutamine (2 mM).
In the BrdU Assay for cell growth inhibition, quantitation of cell proliferation is based on the measurement of BrdU incorporation during DNA synthesis. The Cell Proliferation ELISA BrdU assay kit (colorimetric) is obtained from Roche Applied Science and performed as per vendor instructions.
The growth inhibition (G1) is determined from the formula G1=(T0−Tr×100/T0−CONn) where T0 is the BrdU growth of untreated cells at time “0”, Tn, is the BrdU growth of treated cells at day “n” and CONn is the control BrdU growth of control cells at day “n”. The GI50 is extrapolated and the data plotted using XL-Fit 4.0 software. […]
(§2) Seeded 96 well plates are allowed to attach overnight for 18-24 hours, either at 37° C. and 5% CO2 for HT-29 or at 37° C. and 10% CO2 for c-Src 3T3. Approx 18-24 hours after seeding, the initial growth of cells (T0) is determined for untreated cells using the BrdU assay. […] Plates are assayed for BrdU and the data is analyzed as above for GI50.

c-Src527F/NIH 3T3 = assay: BrdU cell growth inhibition, c-Src527F/NIH 3T3; settings: Mus musculus, NIH3T3; c-Src527F/NIH 3T3 cells; read-out: c-Src527F/NIH 3T3 GI 50
Description: as §1
The c-Src 3T3 is a mouse fibroblast NIH 3T3 normal cell line that has been transfected with a point-mutant of human c-Src wherein tyrosine 527 has been converted to a phenylalanine. This mutation results in “constitutively active” c-Src because phosphorylation on tyrosine 527 results in auto-inhibition of Src by having it fold back on its own SH2 domain. With a Phe there, this phosphorylation can't occur and therefore auto-inhibition can't occur. Thus, the always fully active mutant Src then converts the normal mouse fibroblasts into rapidly growing tumor cells. […]
In the BrdU Assay for cell growth inhibition, quantitation of cell proliferation is based on the measurement of BrdU incorporation during DNA synthesis. […]
The growth inhibition (G1) is determined from the formula G1=(T0−Tr×100/T0−CONn) where T0 is the BrdU growth of untreated cells at time “0”, Tn, is the BrdU growth of treated cells at day “n” and CONn is the control BrdU growth of control cells at day “n”. […]
as §2

Ba/F3-JAK3 = Ba/F3-JAK3 cell growth inhibition; settings: Ba/F3-JAK3 cells
Ba/F3-JAK2 = Ba/F3-JAK2 cell growth inhibition; settings: Ba/F3-JAK2 cells
Hep 3B = assay: MTT growth inhibition, Hep 3B; settings: Homo sapiens, Hep3B, 8.0×10^3 cells/wells, 1.5% FBS, 78 Hr, normalized response data
Description: (§3) Samples of the test compounds are formulated in 100% DMSO to obtain 20 mM stock solutions; stored @ 4° C. The IC50s and IC80s are determined as described below. Huh7, WRL-68, PLC/PRF/5, Hep 3B, and Hep G2 human cancer lines are routinely cultured and maintained in a basal medium containing 2% FBS @ 37° C., 5% CO2. Cells are seeded @ 4.0×10^3/190 μl and 8.0×10^3/190 μl per well of a 96-well plate. The assay medium is basal medium/1.5% FBS. […] The test article dilutions are prepared as follows: 20 mM stock solution samples are diluted serially in basal medium/1.5% FBS using 1:3 dilutions, yielding 20× concentrations; 131 μM to 0.24 nM range. 10 μL of 20× dilutions are added to the appropriate wells (n=3) containing 190 μL cancer cell line; 6561 nM to 0.012 nM range of final concentrations. Vehicle control contains cells, no sample. Medium control contains cells, no sample, 0.03% DMSO (highest DMSO concentration present in samples). The treated cells are incubated for 72 hours at 37° C., 5% CO2. On day 3, 10 μL MTT (5 mg/mL) are added to each well. Cells are incubated in the presence of MTT for 4 hours @ 37° C., 5% CO2. 90 μL 10% SDS(+HCl) is added to each well to lyse cells and solubilize formazan.

ACHN = assay: Tumor growth inhibition, ACHN; settings: Homo sapiens, read-out: Dasatinib GI50, renal cell adenocarcinoma
PLC/PRF/5 = assay: MTT growth inhibition, PLC/PRF/5; settings: Homo sapiens, 8.0×10^3 cells/wells, 1.5% FBS, 78 Hr, normalized response data
Description: as §3

786-O = assay: Tumor growth inhibition, 786-O; settings: Homo sapiens, 786-0, read-out: Dasatinib GI50, renal cell adenocarcinoma
Caki-2 = assay: Tumor growth inhibition, Caki-2; settings: Homo sapiens, read-out: Dasatinib GI50; Caki-2, clear cell carcinoma
HuH7 = assay: MTT growth inhibition, HuH7; settings: Homo sapiens, Huh-7, 8.0×10^3 cells/wells, 1.5% FBS, 78 Hr, normalized response data
Description: as §3, with “formazan. […] OD570 measurements are taken, e.g., using BioTek Synergy HT multiplatform microplate reader. Growth inhibition curves IC50s and IC80s are determined using GraphPad Prism 5 statistical software.” for “formazan.”

769-P = assay: Tumor growth inhibition, 769-P; settings: Homo sapiens, read-out: Dasatinib GI50, renal cell adenocarcinoma
[1] = system: known Src protein substrates; assay: Phosphorylation of Src substrates in HT29 cells; settings: human colon cancer cells (HT29)
Description: (§4) Compounds of the invention may be Src signaling inhibitors that bind in the Src peptide substrate site. The activity of various compounds of the invention has been studied in c-Src (527F, constitutively active and transforming) transformed NIH3T3 cells and in human colon cancer cells (HT29).
(§5) HT29 (colon cancer) and c-Src527F/NIH-3T3 (Src transformed) cell lines are treated with a compound of the invention or with AstraZeneca's ATP competitive Src inhibitor AZ28 (KX2-328). AZ28 serves as a positive comparator to show what a validated Src inhibitor should do in these assays. After treatment with compound, cells are lysed, subjected to PAGE and probed with a battery of antibodies. […] In addition, off-target protein phosphorylation is also investigated. Further, induction of apoptosis is evaluated via Caspase 3 cleavage. Multiple doses of each compound are tested because the trends in response to increasing drug concentration are the most reliable indicator of activity.
(§6) A dose response curve is generated using the GI50 for the compounds of the invention in each of the two cell lines as the 1× concentration. […] The same range of multiples of the GI50 for AZ28 in these two cell lines are run as a comparison.

[2] = system: known Src protein substrates; assay: Phosphorylation of Src substrates in c-Src (527F) transformed NIH3T3 cells
Description: as §4, §5, §6

GI50 (HT29): 1.06 µM
IC50 (Ba/F3-JAK3): 1.29 µM
IC50 (Ba/F3-JAK2): 2.08 µM
SMILES: C[C@@H](NC(=O)Cc1ccc(-c2ccc(OCCN3CCOCC3)cc2F)nc1)C1CCCCC1
GI50 (c-Src527F/NIH 3T3): 1.23 µM

GI50 (HT29): 1.23 µM
IC50 (Ba/F3-JAK3): 1.2 µM
IC50 (Ba/F3-JAK2): 1.31 µM
SMILES: O=C(Cc1ccc(-c2ccc(OCCN3CCOCC3)cc2F)nc1)NCCC1CCCC1
GI50 (c-Src527F/NIH 3T3): 1.16 µM

SMILES: Cc1nc(Nc2ncc(C(=O)Nc3c(C)cccc3Cl)s2)cc(N2CCN(CCO)CC2)n1 [Dasatinib]
IC80 (Hep 3B): > 50 µM
GI50 (ACHN): 0.0211 µM
IC80 (PLC/PRF/5): > 50 µM
GI50 (786-O): 2.01 µM
GI50 (Caki-2): 0.0142 µM
IC50 (HuH7): 1.97 µM
IC80 (HuH7): 7.13 µM
GI50 (769-P): 0.0463 µM

SMILES: O=C(Cc1ccc(-c2ccc(OCCN3CCOCC3)cc2)cn1)NCc1ccccc1 [KX2-391]
phosphorylation level of known Src protein substrates [1]: reduce the phosphorylation level of known Src protein substrates in a dose-dependent fashion
phosphorylation level of known Src protein substrates [2]: reduce the phosphorylation level of known Src protein substrates in a dose-dependent fashion
